Results from article PMC9322122, “Development of (4-Phenylamino)quinazoline Alkylthiourea Derivatives as Novel NF-κB Inhibitors” (Pharmaceuticals, 2022).
Entries after “also recorded” stand apart in the source; their conditions may differ.

Experiments:
[1] = system: NF-κB p65; test: Nuclear translocation of NF-κB p65, immunofluorescent staining; type: cell-based, human; conditions: 7.5 µM, 3 h, then LPS 0.1 µg/mL 30 min; dTHP-1 cells
Experimental: Cells were fixed with 4% formaldehyde and then incubated with 5% goat serum. The intracellular location of NF-κB p65 was determined using primary antibodies against NF-κB p65 (Cell Signaling Technology, Beverly, MA, USA) and FITC-conjugated secondary antibody. Nuclei were counterstained with Hoechst (1 µg/mL). Images were obtained by fluorescent microscopy (OLYMPUS IX 81; Olympus, Tokyo, Japan).
(§1) The dTHP−1 cells were incubated with DMSO (0.1%), 19 (7.5 µM), or CAPE (10 µM) in medium for 3 h and then stimulated with or without LPS (0.1 µg/mL) for another 30 min. (A) Nuclear translocation of NF-κB p65 (green) was determined by immunofluorescent microscopy. Hoechst (blue) was used for nuclei staining. (B) The nuclear NF-κB p65-positive cells were quantified. (C) The levels of phospho-NF-κB p65 (S468), IκB, and GAPDH were determined by Western blot. (D) The normalized phospho-NF-κB p65 (S468) and IκB levels were quantified. All data are expressed as mean ± SEM (n = 3); ** p < 0.01 and *** p < 0.001 compared with the DMSO + LPS group.

[2] = system: IL-6 production; test: IL-6 production in LPS-activated dTHP-1 cells (ELISA); type: cell-based, human; conditions: Homo sapiens
Experimental: (§2) The HEK-293 (ATCC Cat# CRL-1573, RRID:CVCL_0045) and human monocytic THP−1 cells (ATCC Cat# TIB-202, RRID:CVCL_0006) were, respectively, cultured in DMEM and RPMI 1640 media supplemented with 10% fetal bovine serum, 2 mM L-glutamine, and 1× Antibiotic-Antimycotic at 37 °C in a humidified incubator with 5% CO2. THP−1 cells were differentiated by 100 nM phorbol-12-myristate-13-acetate (PMA) for 4 h and then rested for 44 h as dTHP−1 cells.
(§3) The dTHP−1 cells were treated with indicated compounds for 3 h and then activated with or without 100 ng/mL lipopolysaccharide (LPS; E. coli 0111:B4) for another 24 h. The levels of human IL-6 and TNFα in supernatants were measured by DuoSet® ELISA Development System (R&D systems, Minneapolis, MN, USA) according to the manufacturer’s protocol.

[3] = system: TNFα production; test: TNFα production in LPS-activated dTHP-1 cells (ELISA); type: cell-based; conditions: Homo sapiens
Experimental: as §2, §3

[4] = system: phospho-NF-κB p65 (S468); test: Western blot phospho-NF-κB p65 (S468) in dTHP-1 cells; type: cell-based, human; conditions: 7.5 µM; LPS-stimulated dTHP-1 cells
Experimental: (§4) Cells were lysed in the commercial RIPA Buffer (Thermo Fisher Scientific, Waltham, MA, USA) and then centrifuged at 14,000× g for 20 min. […] Antibodies used in this study were phospho-NF-κB p65 (S468; catalog no. 3039), phospho-NF-κB p65 (S536; catalog no. 3033), phospho-IKKα/β (catalog no. 2697), and IκB (catalog no. 9242) from Cell Signaling Technology (Beverly, MA, USA); GAPDH from ABclonal (catalog no. A10868; Woburn, MA, USA). The labeled signals were determined using an enhanced chemiluminescence system (UVP, Upland, CA, USA). The experiments were performed at least two times in triplicate, providing basically the same results.
as §1

[5] = system: phospho-IKKα/β; test: Western blot phospho-IKKα/β in dTHP-1 cells; type: cell-based, human; conditions: 7.5 µM; LPS-stimulated dTHP-1 cells
Experimental: as §4
The dTHP−1 cells were incubated with DMSO (0.1%), 19 (7.5 µM), or CAPE (10 µM) in medium for 3 h and then stimulated with or without LPS (0.1 µg/mL) for another 30 min. (A) The levels of phospho-NF-κB p65 (S536), phospho-IKKα/β, IκB, and GAPDH were determined by Western blot. The normalized (B) phospho-NF-κB p65 (S536), (C) phospho-IKKα/β, and (D) IκB levels were quantified. All data are expressed as mean ± SEM (n = 3); * p < 0.05 compared with the DMSO + LPS group.

[6] = system: dTHP−1 cells; test: Cell viability of dTHP-1 cells with or without LPS; type: cell-based, human; conditions: in % (unit assumed)
Experimental: as §2
Cells were incubated with the WST-1 reagent (Thermo Fisher Scientific, Waltham, MA, USA) at 37 °C for 2 h. The cell viability was determined by spectrophotometer at 450 nm.
as §3

[7] = LPS-activated dTHP-1 cells, 24 h

SMILES: S=C(Nc1ccc2ncnc(Nc3cccc(Cl)c3)c2c1)NC1CCCC1 [Compound 19, 1-(4-((3-Chlorophenyl)amino)quinazolin-6-yl)-3-cyclopentylthiourea]
- LPS-induced nuclear translocation of NF-κB p65 [1]: inhibits the LPS-induced nuclear translocation of NF-κB p65; also recorded: clearly inhibited the nuclear translocation of NF-κB
- inhibition at 7.5 µM ([2]; 7.5 μM, LPS 100 ng/mL for 24 h, dTHP-1 cells, read-out: IL-6 Production Inh % (7.5 μM)): 92.7 ± 5.5%
- inhibition at 15 µM ([2]; 15 μM, LPS 100 ng/mL for 24 h, dTHP-1 cells, read-out: IL-6 Production Inh % (15 μM)): 98.3 ± 0.28%
- IC50 [2, 7]: 840 ± 120 nM
- inhibition at 7.5 µM ([3]; 7.5 μM, LPS 100 ng/mL for 24 h, dTHP-1 cells, read-out: TNFα Production Inh % (7.5 μM)): 82.5 ± 5.6%
- inhibition at 15 µM ([3]; 15 μM, LPS 100 ng/mL for 24 h, dTHP-1 cells, read-out: TNFα Production Inh % (15 μM)): 91.5 ± 2.5%
- IC50 [3, 7]: 4000 ± 200 nM
- melting point: 229.1 to 231.6 °C
- Phosphorylation of p65-Ser468 [4]: significantly diminished phosphorylation of p65-Ser468
- Activation of IKKα/β (phospho-IKKα/β) [5]: had no effects on IKKα/β-IκB signaling; also recorded: neither blocked the activation of IKKα/β
- Cell viability of dTHP-1 cells, 5 μM, LPS ([6]; 5 μM (so in the source), LPS 100 ng/mL for 24 h): 4.9 ± 0.38
- Cell viability of dTHP-1 cells, 5 μM, without LPS ([6]; 5 μM (so in the source), no LPS): 30.0 ± 1.3
- Cell viability of dTHP-1 cells, 7.5 μM, without LPS ([6]; 7.5 μM, no LPS): 60.3 ± 0.85
